# Results taken from PMC9917560, “Design, Synthesis and Antimicrobial Evaluation of New N-(1-Hydroxy-1,3-dihydrobenzo[c][1,2]oxaborol-6-yl)(hetero)aryl-2-carboxamides as Potential Inhibitors of Mycobacterial Leucyl-tRNA Synthetase” (International Journal of Molecular Sciences, 2023).
# Like-named read-outs stand apart in the source and are kept apart here.
# Columns and labels:
# [1] = tested on: Staphylococcus aureus subsp. aureus CCM 4223 (ATCC 29213); assay: Antibacterial microdilution broth (EUCAST); assay type: cell-based; conditions: read-out: MIC Staphylococcus aureus subsp. aureus
# [2] = tested on: Mycobacterium kansasii DSM 44,162 (ATCC 12478); assay: Antimycobacterial microdilution (resazurin) vs M. kansasii; assay type: cell-based; conditions: read-out: MIC M. kansasii
# [3] = tested on: Candida krusei CCM 8271 (ATCC 6258); assay: Antifungal microdilution broth (EUCAST); assay type: cell-based; conditions: Pichia kudriavzevii, read-out: MIC Candida krusei
# [4] = tested on: Klebsiella pneumoniae CCM 4415 (ATCC 10031); assay: Antibacterial microdilution broth (EUCAST); assay type: cell-based; conditions: Klebsiella pneumoniae, read-out: MIC Klebsiella pneumoniae
# [5] = tested on: Candida tropicalis CCM 8264 (ATCC 750); assay: Antifungal microdilution broth (EUCAST); assay type: cell-based; conditions: read-out: MIC Candida tropicalis
# [6] = tested on: Escherichia coli CCM 3954 (ATCC 25922); assay: Antibacterial microdilution broth (EUCAST); assay type: cell-based; conditions: Escherichia coli, read-out: MIC Escherichia coli
# [7] = tested on: Mycobacterium avium DSM 44,156 (ATCC 25291); assay: Antimycobacterial microdilution (resazurin) vs M. avium; assay type: cell-based; conditions: Mycobacterium avium, Middlebrook 7H9, resazurin; read-out: MIC M. avium
# [8] = tested on: methicillin-resistant Staphylococcus aureus subsp. aureus (MRSA) CCM 4750 (ATCC 43300); assay: microbe, parasite or virus in culture; assay type: cell-based; conditions: read-out: MIC Methicillin-resistant Staphylococcus aureus subsp. aureus
# [9] = tested on: Staphylococcus epidermidis CCM 4418 (ATCC 12228); assay: Antibacterial microdilution broth (EUCAST); assay type: cell-based; conditions: read-out: MIC Staphylococcus epidermidis
# [10] = tested on: Acinetobacter baumannii DSM 30007 (ATCC 19606); assay: Antibacterial microdilution broth (EUCAST); assay type: cell-based; conditions: read-out: MIC Acinetobacter baumannii
# [11] = tested on: Aspergillus fumigatus ATCC 204305; assay: Antifungal microdilution broth (EUCAST); assay type: cell-based; conditions: Aspergillus fumigatus, ATCC204305, read-out: MIC Aspergillus fumigatus
# [12] = tested on: Candida parapsilosis CCM 8260 (ATCC 22019); assay: Antifungal microdilution broth (EUCAST); assay type: cell-based; conditions: Lodderomyces parapsilosis, read-out: MIC Candida parapsilosis
# [13] = tested on: Pseudomonas aeruginosa CCM 3955 (ATCC 27853); assay: Antibacterial microdilution broth (EUCAST); assay type: cell-based; conditions: read-out: MIC Pseudomonas aeruginosa
# [14] = tested on: Mycolicibacterium aurum DSM 43,999 (ATCC 23366); assay: Antimycobacterial microdilution (resazurin) vs M. aurum; assay type: cell-based; conditions: Middlebrook 7H9, resazurin, read-out: MIC M. aurum
# [15] = tested on: Mycolicibacterium smegmatis DSM 43,465 (ATCC 607); assay: Antimycobacterial microdilution (resazurin) vs M. smegmatis; assay type: cell-based; conditions: Middlebrook 7H9, resazurin, read-out: MIC M. smeg.
# [16] = tested on: Lichtheimia corymbifera CCM 8077; assay: Antifungal microdilution broth (EUCAST); assay type: cell-based; conditions: Lichtheimia corymbifera, CCM8077, read-out: MIC Lichtheimia corymbifera
# HepG2 cell line = assay: Cytotoxicity screening, CellTiter 96 assay; conditions: for IC50: Homo sapiens, HepG2, 24 h, read-out: IC50 HepG2
# [17] = tested on: Aspergillus flavus CCM 8363; assay: Antifungal microdilution broth (EUCAST); assay type: cell-based; conditions: Aspergillus flavus, CCM8363, read-out: MIC Aspergillus flavus
# [18] = tested on: Trichophyton interdigitale CCM 8377 (ATCC 9533); assay: Antifungal microdilution broth (EUCAST); assay type: cell-based; conditions: Trichophyton interdigitale, read-out: MIC Trichophyton interdigitale
# [19] = tested on: Mycobacterium tuberculosis H37Rv CNCTC My 331/88 (ATCC 27294); assay: Microplate Alamar Blue assay vs Mtb H37Rv; assay type: cell-based; conditions: Mycobacterium tuberculosis, pH 6.6, MABA, Middlebrook 7H9 pH 6.6, recalculated from µg/mL; read-out: MIC Mtb H37Rv
# [20] = tested on: Enterococcus faecalis CCM 4224 (ATCC 29212); assay: Antibacterial microdilution broth (EUCAST); assay type: cell-based; conditions: read-out: MIC Enterococcus faecalis
# [21] = tested on: Mycobacterium tuberculosis H37Ra ITM-M006710 (ATCC 9431); assay: Antimycobacterial microdilution (resazurin) vs Mtb H37Ra; assay type: cell-based; conditions: Middlebrook 7H9, resazurin, recalculated from µg/mL, read-out: MIC Mtb H37Ra
# [22] = tested on: Candida albicans CCM 8320 (ATCC 24433); assay: Antifungal microdilution broth (EUCAST); assay type: cell-based; conditions: Candida albicans, read-out: MIC Candida albicans
smiles,measurement,setting,value
"O=C(Nc1ccc2c(c1)B(O)OC2)c1cnccn1 [Compound 1, N-(1-hydroxy-1,3-dihydrobenzo[c][1,2]oxaborol-6-yl)pyrazine-2-carboxamide]",MIC,[1]; 24h incubation,250 µM
same,MIC,[1]; 48h incubation,250 µM
same,MIC,"[2]; Middlebrook 7H9, resazurin",30.6 µM
same,MIC,[3]; 24h incubation,> 500 µM
same,MIC,[3]; 48h incubation,> 500 µM
same,MIC,[4]; 24h incubation,> 500 µM
same,MIC,[4]; 48h incubation,> 500 µM
same,MIC,[5]; 24h incubation,> 500 µM
same,MIC,[5]; 48h incubation,> 500 µM
same,melting point,,261.3 to 262.3 °C
same,MIC,[6]; 24h incubation,> 500 µM
same,MIC,[6]; 48h incubation,> 500 µM
same,MIC,[7],123 µM
same,MIC,[8]; 24 h,500 µM
same,MIC,[8]; 48 h,500 µM
same,MIC,[9]; 24h incubation,500 µM
same,MIC,[9]; 48h incubation,500 µM
same,MIC,[10]; 24h incubation,> 500 µM
same,MIC,[10]; 48h incubation,> 500 µM
same,MIC,[11]; 24h incubation,> 500 µM
same,MIC,[11]; 48h incubation,> 500 µM
same,MIC,[12]; 24h incubation,> 500 µM
same,MIC,[12]; 48h incubation,> 500 µM
same,MIC,[13]; 24h incubation,> 500 µM
same,MIC,[13]; 48h incubation,> 500 µM
same,MIC,[14],15.3 µM
same,MIC,[15],30.6 µM
same,MIC,[16]; 24h incubation,> 500 µM
same,MIC,[16]; 48h incubation,> 500 µM
same,IC50,HepG2 cell line,> 1000 µM
same,MIC,[17]; 24h incubation,> 500 µM
same,MIC,[17]; 48h incubation,> 500 µM
same,MIC,[18]; 72h incubation,> 500 µM
same,MIC,[18]; 120h incubation,> 500 µM
same,MIC,[19],49 µM
same,MIC,[20]; 24h incubation,> 500 µM
same,MIC,[20]; 48h incubation,> 500 µM
same,MIC,[21],123 µM
same,MIC,[22]; 24h incubation,> 500 µM
same,MIC,[22]; 48h incubation,> 500 µM
"Cc1cnc(C(=O)Nc2ccc3c(c2)B(O)OC3)cn1 [Compound 2, N-(1-hydroxy-1,3-dihydrobenzo[c][1,2]oxaborol-6-yl)-5-methylpyrazine-2-carboxamide]",MIC,[1]; 24h incubation,250 µM
same,MIC,[1]; 48h incubation,250 µM
same,MIC,[2],58.1 µM
same,MIC,[3]; 24h incubation,> 500 µM
same,MIC,[3]; 48h incubation,> 500 µM
same,MIC,[4]; 24h incubation,> 500 µM
same,MIC,[4]; 48h incubation,> 500 µM
same,MIC,[5]; 24h incubation,> 500 µM
same,MIC,[5]; 48h incubation,> 500 µM
same,melting point,,215 to 216.1 °C
same,MIC,[6]; 24h incubation,> 500 µM
same,MIC,[6]; 48h incubation,> 500 µM
same,MIC,[7],58.1 µM
same,MIC,[8]; 24 h,> 500 µM
same,MIC,[8]; 48 h,> 500 µM
same,MIC,[9]; 24h incubation,500 µM
same,MIC,[9]; 48h incubation,500 µM
same,MIC,[10]; 24h incubation,> 500 µM
same,MIC,[10]; 48h incubation,> 500 µM
same,MIC,[11]; 24h incubation,> 500 µM
same,MIC,[11]; 48h incubation,> 500 µM
same,MIC,[12]; 24h incubation,> 500 µM
same,MIC,[12]; 48h incubation,> 500 µM
same,MIC,[13]; 24h incubation,> 500 µM
same,MIC,[13]; 48h incubation,> 500 µM
same,MIC,[14],14.5 µM
same,MIC,[15],29 µM
same,MIC,[16]; 24h incubation,> 500 µM
same,MIC,[16]; 48h incubation,> 500 µM
same,IC50,HepG2 cell line,> 500 µM
same,toxicity to HepG2 up to highest tested concentration,"HepG2 cell line; tested up to 500 µM (2, 3), 250 µM (12, 17), 100 µM (6, 7, 11) because of solubility",non-toxic
same,MIC,[17]; 24h incubation,> 500 µM
same,MIC,[17]; 48h incubation,> 500 µM
same,MIC,[18]; 72h incubation,> 500 µM
same,MIC,[18]; 120h incubation,> 500 µM
same,MIC,[19],46.5 µM
same,MIC,[20]; 24h incubation,> 500 µM
same,MIC,[20]; 48h incubation,> 500 µM
same,MIC,[21],58.1 µM
same,MIC,[22]; 24h incubation,> 500 µM
same,MIC,[22]; 48h incubation,> 500 µM
